{
  "source": "patent US20250275975A1",
  "about": "“Methods of Treating Neuropathies” (Athira Pharma, Inc., priority 2023, published 2025)",
  "key": {"STZ DNP rats [1]": {"test_system": "STZ DNP rats", "test": "Mechanical allodynia rescue assay (Von Frey paw withdrawal threshold), Example B1", "assay_type": "in vivo, Sprague Dawley rats", "design": "key to Efficacy: rescue of mechanical allodynia behavior as measured by paw withdrawal threshold: NS indicates treatment did not significantly affect paw withdrawal threshold vs disease control.; + indicates p < 0.05 vs disease control.; ++ indicates p < 0.01 vs disease control.; +++ indicates p < 0.001 vs disease control", "details": "for Efficacy: rescue of mechanical allodynia behavior as measured by paw withdrawal threshold: study day 28 after 14 days of treatment, p vs disease control", "text": "Hyperglycemic rats consistently develop neuropathic pain-associated behaviors including mechanical allodynia. Allodynia refers to a type of neuropathic pain characterized by increased sensitivity to stimuli that are not normally painful. Mechanical allodynia is quantified in rats by determination of the force required to induce a withdrawal of the paw and is negatively associated with allodynia such that, the lower the force required to induce paw withdrawal, the greater the pain behavior.\n(§1) A series of studies were performed to determine the ability of HGF/MET positive modulator compounds to reduce the mechanical allodynia pain behaviors in hyperglycemic rats. A single dose of STZ (55 mg/kg via intravenous (IV)) was administered to induce a Type I diabetic hyperglycemia in male Sprague Dawley rats. Hyperglycemia was confirmed 4 days after STZ administration, with blood glucose levels above 200 mg/dL considered successful model induction. 14 days after disease induction, test compound treatment was initiated and continued as daily compound administration over the remaining course of the study. Route and dose for each compound were determined by pharmacokinetic and distribution modelling. Control groups included animals with no diabetic induction (Sham control), animals with diabetes but treated only with formulation vehicle (DNP (diabetic peripheral neuropathy) control), and disease animals treated with pregabalin (30 mg/kg via PO), which is known to reduce neuropathic pain behaviors.\n(§2) Changes to neuropathic pain behaviors were assessed after 14 days of compound treatment on study day 28. Mechanical allodynia was tested by placing each animal on an elevated wire grid and stimulating the plantar surface of the right rear paw with a series of filaments corresponding to increasing orders of force, reaching a maximum force of 60 grams (Aesthesio manual Von Frey filaments). The force of the filament that causes paw withdrawal was considered the paw withdrawal threshold in grams. Pain sensitivity in response to thermal hyperalgesia was determined by using hot plate method and represented as paw withdrawal latency (PWL). Rats were placed on the hot plate (52.5° C.), and the time taken to show the nocifensive behavior (either licking or jumping) of any of their paws was recorded. Statistical comparison of treatment groups to DNP control groups was performed by one-way ANOVA followed by Dunnett's multiple comparisons test."}, "[2]": {"test_system": "neuron-Schwann cell co-cultures", "test": "Sensory neurite extension and myelination in healthy primary dorsal root ganglia cultures", "assay_type": "cell-based, rat", "design": "key to Significant promotion of Neurite Network Extension of Sensory Neurons / Significant promotion of Myelination of Sensory neurons by Schwann Cells: “NS” indicates the treatment did not have a significant effect; “+” indicates the treatment had a significant effect", "details": "for Significant promotion of Myelination of Sensory neurons by Schwann Cells / Significant promotion of Neurite Network Extension of Sensory Neurons: Healthy cultures, vs vehicle", "protocol": "(§3) To assess the effects of test compound treatment on these structures central to neuropathic pathology, peripheral sensory neurons were modeled using dissociated primary cultures of neurons and Schwann cells collected from fetal rats. Fetal rats were collected from pregnant females after 15 days of gestation, and the dorsal root ganglion was dissociated via trypsin digestion and mechanical disruption. The resulting cells were plated and allowed to grow for 7 days. On day 7 in culture, ascorbic acid at a concentration of 50 μM was added to the culture to promote myelination of sensory neurons by Schwann cells.\nTo model the effects of Compound 5a in the normal peripheral nervous system, neuron-Schwann cell co-cultures were treated with Compound 5a in combination with low doses of recombinant hepatocyte growth factor (HGF). On day 8 in culture, experimental treatments were added to culture media. These treatments included HGF with or without Compound 5a. Some cultures were treated with the steroid hormone B-estradiol to serve as a positive control. Treatments were applied every other day, and on day 21 in culture the cultures were fixed with ethanol and processed for immunodetection of both microtubule-associate protein 2 (MAP2) to reveal neurons and their neurites as well as myelin-associated glycoprotein (MAG) to reveal Schwann cells and the extent of their myelination of cultured neurites. Cells were counterstained with Hoechst DNA dye to identify individual cells.\n(§4) 30 fluorescent images were captured for each treatment group and images were quantified by automated image analysis. Neurite network extension was quantified as the total length of MAP2-positive neurites per cell measured in μm. Myelination by Schwann cells was quantified by the area of overlap between MAP2-positive neurites and MAG-positive myelin wrapping measured in μm^2. Statistical analysis was performed as a one-way ANOVA with Fisher's LSD post-test against either vehicle- or Cisplatin-treated groups respectively."}, "STZ DNP rats [3]": {"test_system": "STZ DNP rats", "test": "Thermal hyperalgesia rescue assay (hot plate paw withdrawal latency), Example B1", "assay_type": "in vivo, Sprague Dawley rats", "design": "key to Efficacy: rescue of thermal hyperalgesia behavior as measured by paw withdrawal latency: NS indicates treatment did not significantly affect paw withdrawal latency vs disease control.; + indicates p < 0.05 vs disease control.; ++ indicates p < 0.01 vs disease control.; +++ indicates p < 0.001 vs disease control", "details": "for Efficacy: rescue of thermal hyperalgesia behavior as measured by paw withdrawal latency: study day 28 after 14 days of treatment, hot plate 52.5° C., p vs disease control", "protocol": "as §1, §2"}, "[4]": {"test_system": "neuron-Schwann cell co-cultures injured with cisplatin", "test": "Sensory neurite extension and myelination in cisplatin-injured primary dorsal root ganglia cultures", "assay_type": "cell-based, rat", "design": "key to Significant promotion of Neurite Network Extension of Sensory Neurons / Significant promotion of Myelination of Sensory neurons by Schwann Cells: “NS” indicates the treatment did not have a significant effect; “+” indicates the treatment had a significant effect", "details": "for Significant promotion of Myelination of Sensory neurons by Schwann Cells / Significant promotion of Neurite Network Extension of Sensory Neurons: +Cisplatin injury (10 μg/ml, 24 hours), vs Cisplatin-treated group", "protocol": "as §3\nTo model the effects of neuropathic injury in sensory neurons and associated Schwann cells, cultures were injured with the chemotherapy drug cisplatin. These cultures were prepared identically to those described above. In this system, Compound 5a, HGF, and β-estradiol treatments began on culture day 19. Also on culture day 19, cisplatin (10 μg/ml) was added to the cultures for 24 hours. On culture day 20, cisplatin was removed from the media while test compound treatments were replaced for 24 hours. On day 21 in culture, cells were fixed and processed for immunodetection as described above.\nas §4"}, "[5]": {"details": "Compound 5a 0.1 μM with HGF 0.05 ng/ml"}, "[6]": {"details": "Compound 5a 0.5 μM with HGF 0.05 ng/ml"}, "[7]": {"details": "Compound 5a 1 μM with HGF 0.05 ng/ml"}, "[8]": {"details": "healthy cultures, 0.5 μM Compound 5a with HGF (0.05 ng/ml)"}, "[9]": {"details": "injured cultures, Compound 5a at 0.1, 0.5, and 1 μM with HGF (0.05 ng/ml)"}},
  "data": [
    {"smiles": "CCC(C)CN1CC2N(Cc3ccc(C(F)(F)F)cc3)CCC(=O)N2[C@@H](C)C1=O", "note": "(stereo partly shown) [Compound 5a]", "values": [
      {"measurement": "Efficacy: rescue of mechanical allodynia behavior as measured by paw withdrawal threshold", "setting": "STZ DNP rats [1]; 0.003 mg/kg IV daily", "result": "NS"},
      {"measurement": "Efficacy: rescue of mechanical allodynia behavior as measured by paw withdrawal threshold", "setting": "STZ DNP rats [1]; 0.015 mg/kg IV daily", "result": "NS"},
      {"measurement": "Efficacy: rescue of mechanical allodynia behavior as measured by paw withdrawal threshold", "setting": "STZ DNP rats [1]; 0.075 mg/kg IV daily", "result": "NS"},
      {"measurement": "Efficacy: rescue of mechanical allodynia behavior as measured by paw withdrawal threshold", "setting": "STZ DNP rats [1]; 0.375 mg/kg IV daily", "result": "++ (++ indicates p < 0.01 vs disease control.)"},
      {"measurement": "Efficacy: rescue of mechanical allodynia behavior as measured by paw withdrawal threshold", "setting": "STZ DNP rats [1]; 1 mg/kg PO daily", "result": "++ (++ indicates p < 0.01 vs disease control.)"},
      {"measurement": "Efficacy: rescue of mechanical allodynia behavior as measured by paw withdrawal threshold", "setting": "STZ DNP rats [1]; 2 mg/kg PO daily", "result": "+++ (+++ indicates p < 0.001 vs disease control.)"},
      {"measurement": "Efficacy: rescue of mechanical allodynia behavior as measured by paw withdrawal threshold", "setting": "STZ DNP rats [1]; 10 mg/kg PO daily", "result": "+++ (+++ indicates p < 0.001 vs disease control.)"},
      {"measurement": "Efficacy: rescue of mechanical allodynia behavior as measured by paw withdrawal threshold", "setting": "STZ DNP rats [1]; 20 mg/kg PO daily", "result": "+++ (+++ indicates p < 0.001 vs disease control.)"},
      {"measurement": "rescue of the mechanical allodynia behavior as measured by paw withdrawal threshold", "setting": "STZ DNP rats [1]; STZ DNP rats", "result": "significant rescue"},
      {"measurement": "Significant promotion of Myelination of Sensory neurons by Schwann Cells", "setting": "[2]; [5]", "result": "+"},
      {"measurement": "Significant promotion of Neurite Network Extension of Sensory Neurons", "setting": "[2]; [5]", "result": "NS"},
      {"measurement": "Significant promotion of Myelination of Sensory neurons by Schwann Cells", "setting": "[2]; [6]", "result": "+"},
      {"measurement": "Significant promotion of Neurite Network Extension of Sensory Neurons", "setting": "[2]; [6]", "result": "+"},
      {"measurement": "Significant promotion of Myelination of Sensory neurons by Schwann Cells", "setting": "[2]; [7]", "result": "NS"},
      {"measurement": "Significant promotion of Neurite Network Extension of Sensory Neurons", "setting": "[2]; [7]", "result": "NS"},
      {"measurement": "myelination", "setting": "[2]; [8]", "result": "significant promotion"},
      {"measurement": "neurite network extension", "setting": "[2]; [8]", "result": "significant promotion"},
      {"measurement": "Efficacy: rescue of thermal hyperalgesia behavior as measured by paw withdrawal latency", "setting": "STZ DNP rats [3]; 0.003 mg/kg IV daily", "result": "+ (+ indicates p < 0.05 vs disease control.)"},
      {"measurement": "Efficacy: rescue of thermal hyperalgesia behavior as measured by paw withdrawal latency", "setting": "STZ DNP rats [3]; 0.015 mg/kg IV daily", "result": "NS"},
      {"measurement": "Efficacy: rescue of thermal hyperalgesia behavior as measured by paw withdrawal latency", "setting": "STZ DNP rats [3]; 0.075 mg/kg IV daily", "result": "+ (+ indicates p < 0.05 vs disease control.)"},
      {"measurement": "Efficacy: rescue of thermal hyperalgesia behavior as measured by paw withdrawal latency", "setting": "STZ DNP rats [3]; 0.375 mg/kg IV daily", "result": "++ (++ indicates p < 0.01 vs disease control.)"},
      {"measurement": "Efficacy: rescue of thermal hyperalgesia behavior as measured by paw withdrawal latency", "setting": "STZ DNP rats [3]; 1 mg/kg PO daily", "result": "NS"},
      {"measurement": "Efficacy: rescue of thermal hyperalgesia behavior as measured by paw withdrawal latency", "setting": "STZ DNP rats [3]; 2 mg/kg PO daily", "result": "+ (+ indicates p < 0.05 vs disease control.)"},
      {"measurement": "Efficacy: rescue of thermal hyperalgesia behavior as measured by paw withdrawal latency", "setting": "STZ DNP rats [3]; 10 mg/kg PO daily", "result": "+++ (+++ indicates p < 0.001 vs disease control.)"},
      {"measurement": "Efficacy: rescue of thermal hyperalgesia behavior as measured by paw withdrawal latency", "setting": "STZ DNP rats [3]; 20 mg/kg PO daily", "result": "+++ (+++ indicates p < 0.001 vs disease control.)"},
      {"measurement": "rescue of thermal allodynia behavior as measured by paw withdrawal latency", "setting": "STZ DNP rats [3]; STZ DNP rats", "result": "significant rescue"},
      {"measurement": "Significant promotion of Myelination of Sensory neurons by Schwann Cells", "setting": "[4]; [5]", "result": "+"},
      {"measurement": "Significant promotion of Neurite Network Extension of Sensory Neurons", "setting": "[4]; [5]", "result": "+"},
      {"measurement": "Significant promotion of Myelination of Sensory neurons by Schwann Cells", "setting": "[4]; [6]", "result": "+"},
      {"measurement": "Significant promotion of Neurite Network Extension of Sensory Neurons", "setting": "[4]; [6]", "result": "+"},
      {"measurement": "Significant promotion of Myelination of Sensory neurons by Schwann Cells", "setting": "[4]; [7]", "result": "+"},
      {"measurement": "Significant promotion of Neurite Network Extension of Sensory Neurons", "setting": "[4]; [7]", "result": "+"},
      {"measurement": "myelination", "setting": "[4]; [9]", "result": "significantly promoted"},
      {"measurement": "neurite network extension", "setting": "[4]; [9]", "result": "significantly promoted"}
    ]}
  ]
}
